# Assay results published in patent US20020028929A1, “Estradiol derivative and immunoassay using the same” (priority 2000, published 2002).
# System: antiserum RY469 (Rabbit antiserum prepared in Example 1-(2))
# Assay: ELISA system for estrone with biotinylated estradiol derivative 1 as labeled compound (standard curve, cross-reactivity test)
# Assay type: binding
# Settings: relative to estrone (calculated as 100%), labeled compound biotinylated estradiol derivative 1
# Procedure: (2) An ELISA system for estrone using the derivative of the invention as a labeled compound was designed in the following manner.
# Biotinylated estradiol derivative 1 of the invention
# RY469 (Rabbit antiserum prepared in Example 1-(2)
# (a) 100 μL of a standard solution or a sample is pipetted into each well of the 96-well plate, followed by addition of 50 μL of the labeled compound (0.25 ng/mL) comprising the biotinylated estradiol derivative of the invention and 50 μL of the antiserum (×32000);
# (b) the reaction is allowed to proceed using a microplate shaker at room temperature for 5 hours;
# (§1) (c) all the wells are washed with the wash solution 4 times;
# (d) 100 μL of the HRP-labeled reagent (×5000) is added;
# (e) the reaction is allowed to proceed using a microplate shaker at room temperature for 1 hour;
# (f) all the wells are washed with the wash solution 4 times;
# (g) 100 μL of the substrate is added;
# (h) the reaction is allowed to proceed at 20° C. for 20 minutes;
# (i) 100 μL of the enzyme reaction stop solution is pipetted into each well;
# (j) absorbance at 450 nm is measured with a microplate autoreader.
# The specifity of the estrone ELISA system was assessed in the following manner.
# ELISA was repeated in a similar manner as in Example 3-(2) except that the estrogens shown in Table 2 were used in place of the standard estrone (Sigma Co.). The standard curve of each of the estrogens was obtained (see FIG. 6).
row,Molecule,Cross-reactivity (%)
1,C[C@]12CC[C@@H]3c4ccc(O)cc4CC[C@H]3[C@@H]1CC[C@@H]2O [17β-Estradiol],33.33%
2,CC(C)(c1ccc(O)cc1)c1ccc(O)cc1 [Bisphenol A],<0.001%
3,O=C(O[C@@H]1Cc2c(O)cc(O)cc2O[C@@H]1c1ccc(O)c(O)c1)c1cc(O)c(O)c(O)c1 [Epicatechin gallate],<0.001%
4,C[C@]12CC[C@@H]3c4ccc(O)cc4CC[C@H]3[C@@H]1C[C@@H](O)[C@@H]2O [Estriol],0.15%
5,Catechin,<0.001%
6,Nonylphenol,<0.001%

# System: antiserum RY725 (Rabbit antiserum obtained in Example 1-(1))
# Assay: ELISA system for 17β-estradiol with biotinylated estradiol derivative 2 as labeled compound (standard curve, cross-reactivity test)
# Assay type: binding
# Settings: relative to 17β-estradiol (calculated as 100%), labeled compound biotinylated estradiol derivative 2
# Procedure: (1) An ELISA system for 17β-estradiol using the derivative of the invention as a labeled compound was prepared in the following manner.
# (a) 100 μL of a standard solution or a sample is pipetted into each well of the 96-well plate, followed by addition of 50 μL of the labeled compound (0.2 ng/mL) comprising the biotinylated estradiol derivative of the invention and 50 μL of the antiserum (×32000);
# (b) the reaction is allowed to proceed at 4° C. overnight (for 18-20 hours);
# as §1
# (d) the reaction is allowed to proceed using a microplate shaker at room temperature for 2 hours;
# (e) all the wells are washed with the wash solution 4 times;
# (f) […] of the substrate is added;
# (g) the reaction is allowed to proceed at room temperature for 20 minutes;
# (h) 100 μL of the enzyme reaction stop solution is pipetted into each well;
# (i) absorbance at 450 nm is measured with a microplate autoreader.
# The specifity of the 17β-estradiol ELISA system was assessed in the following manner.
row,Molecule,Cross-reactivity (%)
1,COc1cc2c(cc1O)CC[C@@H]1[C@@H]2CC[C@]2(C)[C@@H](O)CC[C@@H]12 [2-Methoxyestradiol],1.79%
2,C[C@]12CC[C@@H]3c4ccc(O)cc4CC[C@H]3[C@@H]1CC[C@@H]2O [17β-Estradiol],100.00%
3,"C[C@]12CCC(=O)C=C1CC[C@@H]1[C@@H]2CC[C@]2(C)C(=O)CC[C@@H]12 [(+)-4-Androsteron-3,17-dione]",0.02%
4,C[C@]12CC[C@@H]3c4ccc(O)cc4CC[C@H]3[C@@H]1C[C@@H](O)[C@@H]2O [Estriol],0.16%
5,C#C[C@]1(O)CC[C@H]2[C@@H]3CCc4cc(O)ccc4[C@H]3CC[C@@]21C [Ethynylestradiol],0.03%
6,CC[C@H](c1ccc(O)cc1)[C@@H](CC)c1ccc(O)cc1 [Hexestrol],0.00%
7,C#C[C@]1(O)CC[C@H]2[C@@H]3CCc4cc(OC)ccc4[C@H]3CC[C@@]21C [Mestranol],0.14%
8,CC(=O)[C@H]1CC[C@H]2[C@@H]3CCC4=CC(=O)CC[C@]4(C)[C@H]3CC[C@]12C [Progesteron],0.01%
9,C[C@]12CC[C@H]3[C@@H](CCC4=CC(=O)CC[C@@]43C)[C@@H]1CC[C@@H]2O [Testosterone],0.28%
10,C[C@]12CCC(=O)C=C1CC[C@@H]1[C@@H]2[C@@H](O)C[C@]2(C=O)[C@@H](C(=O)CO)CC[C@@H]12 [d-ALDOSTERONE],0.00%
11,"C[C@]12CCC3c4ccc(OS(=O)(=O)O)cc4CCC3C1CC[C@@H]2OS(=O)(=O)O (stereo partly drawn) [β-Estradiol 3,7-disulfate]",0.00%
12,C[C@]12CC[C@@H]3c4ccc(O[C@@H]5O[C@H](C(=O)O)[C@@H](O)[C@H](O)[C@H]5O)cc4CC[C@H]3[C@@H]1CC[C@@H]2O [β-Estradiol 3-(β-D-glucronide)],37.44%
13,CC12CCC3c4ccc(OC5OC(C(=O)O)C(O)C(O)C5O)cc4CCC3C1CCC2OS(=O)(=O)O (stereo not drawn) [β-Estradiol 3-glucronide 17-sulfate],0.02%
14,C[C@]12CC[C@@H]3c4ccc(OS(=O)(=O)O)cc4CC[C@H]3[C@@H]1CC[C@@H]2O[C@@H]1O[C@H](C(=O)O)[C@@H](O)[C@H](O)[C@H]1O [β-Estradiol 3-sulfate 17-glucronide],0.00%
15,C[C@]12CC[C@@H]3c4ccc(O)cc4CC[C@H]3[C@@H]1CC[C@@H]2O[C@@H]1O[C@H](C(=O)O)[C@@H](O)[C@H](O)[C@H]1O [β-Estradiol 17-(β-D-glucronide)],0.00%
16,β-Estradiol 3-sulfate,11.05%

# System: not given
# Assay: not given
# Settings: general statement on prior art; cited from earlier work
row,Molecule,solubility in water
1,O=C(O)CCCC[C@@H]1SC[C@@H]2NC(=O)N[C@@H]21 [biotin],minimally soluble in water
